Test results published in patent US8530423B2, “Anxiolytic compositions containing αs1-casein-derived peptides” (Universite de Lorraine, priority 2008, dated 2013).
Where two headings read alike, the source gives them in different places. No end group written: not given here.

Key:
Wistar rat [1] = assay: Light/dark box test; type: in vivo; conditions: for time spent in the familiar compartment / time spent in the unfamiliar, aversive compartment: p<0.05, n=12
From the text: The light/dark tests are based on the innate aversion of rodents for strongly illuminated environments and on their spontaneous exploratory behavior in response to mild stress factors such as a new environment and light. The light/dark box device enables the exploratory behavior of the rodent to be studied with regard to an unfamiliar aversive compartment (strongly illuminated with white light) after habituation in a non-aversive compartment (dark), which then becomes familiar [BOURIN and HASCOET, 2003 (17)]. Classic anxiolytics can be detected by using this device.
The light/dark box measures 65×49×35 cm (h×L×l) and is separated into two identical compartments by a plate with three 8×8-cm doors. The ground is covered with sawdust. Each rat is placed for 24 hours in the rear compartment of the box, and the doors communicating with the front compartment are made inaccessible. The rear compartment thus becomes the familiar compartment. The animal is fed and hydrated ad libitum. On the day of the test, the rat, after treatment, is again placed in the familiar compartment and the doors communicating with the front compartment (unfamiliar) are made accessible so that the animal can freely explore the environment. The unfamiliar compartment is made aversive by illumination with white light having an intensity of 1500 lx. The animals are observed for 10 minutes and the time spent in each of the compartments is measured.
The animals receive their respective treatments intraperitoneally one-half hour before the communication between the familiar compartment and the unfamiliar compartment is opened.

Wistar rat [2] = assay: Elevated cross maze test; type: in vivo; conditions: for number of entries into the open arms / time spent in the open arms: p<0.05
From the text: The elevated cross maze test enables the density of the exploratory behavior in a new aversive situation to be measured [PELLOW et al., 1985 (16)]. The experiment exploits the conflict, in rodents, between the fear of open spaces and the desire to explore a new environment. The rat, placed at the center of the device, is forced to explore its environment. The open arms constitute an anxiety-producing environment, while this is not the case for the closed arms. The number of entries into all of the arms, the number of entries into the open arms, the number of entries into the closed arms, the time spent in the open arms, and the latency of entry into the first open arm constitute parameters reflecting the degree of anxiety of the animal.
The elevated cross maze, made of wood, consists of four branches at 90° to one another. The two open branches (45×10 cm) and the two closed branches (45×10 cm, surrounded by wood plates over a height of 40 cm) are arranged opposite one another. The central square measures 10×10 cm. The open branches are illuminated by a white light with an intensity of 500 lx. The elevated cross maze is located 50 cm from the ground.
The observations took place at between 9 and 11 o'clock in the morning in order to minimize the influence of the circadian rhythm. Before each passage through the elevated cross maze, the animal is placed for 10 minutes in an open field in order to stimulate its exploratory behavior. It is then placed in the central square of the elevated cross maze, and observed for 5 minutes. The cross maze is washed with 95% ethanol (v/v) between two passages so as to remove odors.
The animals receive their respective treatment intraperitoneally one-half hour before being placed in the open field.

[3] = EP 0714910; cited from earlier work
[4] = literature (ZIOUDROU et al., LOUKAS et al.); cited from earlier work
rat [5] = conditions: PCT/EP2007/063863; cited from earlier work
[6] = molecular target: angiotensin-I converting enzyme (Homo sapiens, UniProt P12821); conditions: literature (MARUYAMA et al.); cited from earlier work
Chain of angiotensin-I converting enzyme (P12821 30-1306): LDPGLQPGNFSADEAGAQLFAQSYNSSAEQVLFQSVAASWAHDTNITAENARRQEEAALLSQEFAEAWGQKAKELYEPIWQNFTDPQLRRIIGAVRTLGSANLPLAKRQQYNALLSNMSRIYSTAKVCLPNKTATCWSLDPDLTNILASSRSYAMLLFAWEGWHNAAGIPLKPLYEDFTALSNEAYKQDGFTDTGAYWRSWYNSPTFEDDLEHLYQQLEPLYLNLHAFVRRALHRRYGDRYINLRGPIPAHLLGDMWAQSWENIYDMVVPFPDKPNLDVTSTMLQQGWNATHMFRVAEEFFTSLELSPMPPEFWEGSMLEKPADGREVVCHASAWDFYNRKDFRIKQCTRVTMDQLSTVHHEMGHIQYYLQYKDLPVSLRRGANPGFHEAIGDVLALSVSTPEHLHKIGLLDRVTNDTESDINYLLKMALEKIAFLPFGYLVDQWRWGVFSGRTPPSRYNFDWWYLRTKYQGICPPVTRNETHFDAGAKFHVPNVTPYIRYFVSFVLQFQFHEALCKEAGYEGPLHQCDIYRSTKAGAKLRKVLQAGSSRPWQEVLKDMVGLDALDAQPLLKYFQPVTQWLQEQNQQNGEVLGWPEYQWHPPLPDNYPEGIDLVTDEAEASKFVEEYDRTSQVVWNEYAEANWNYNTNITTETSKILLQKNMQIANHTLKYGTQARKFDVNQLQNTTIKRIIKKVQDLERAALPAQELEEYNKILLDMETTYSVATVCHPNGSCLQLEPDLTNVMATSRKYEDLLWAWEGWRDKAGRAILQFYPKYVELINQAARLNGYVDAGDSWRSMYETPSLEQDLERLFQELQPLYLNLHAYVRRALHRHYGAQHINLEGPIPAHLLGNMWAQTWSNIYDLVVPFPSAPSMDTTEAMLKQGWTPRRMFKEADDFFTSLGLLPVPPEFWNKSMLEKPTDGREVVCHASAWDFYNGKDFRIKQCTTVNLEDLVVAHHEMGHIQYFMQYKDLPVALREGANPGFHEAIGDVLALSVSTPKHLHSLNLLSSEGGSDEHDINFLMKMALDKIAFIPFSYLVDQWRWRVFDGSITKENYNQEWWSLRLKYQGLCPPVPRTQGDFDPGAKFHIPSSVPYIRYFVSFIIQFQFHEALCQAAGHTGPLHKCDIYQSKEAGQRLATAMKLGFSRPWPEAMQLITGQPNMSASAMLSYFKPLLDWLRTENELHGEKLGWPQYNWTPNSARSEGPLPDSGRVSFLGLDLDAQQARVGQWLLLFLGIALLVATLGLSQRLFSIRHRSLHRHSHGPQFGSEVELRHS

rat [7] = assay: in vivo behavioral tests in the rat; conditions: this application
[8] = vehicle animals compared with animals treated 1 mg/kg intraperitoneally
[9] = vehicle animals compared with animals treated 1 mg/kg intraperitoneally, n=15
[10] = 0.5 mg/kg i.p. versus diazepam 1 mg/kg i.p.
[11] = 0.5 mg/kg intraperitoneally, Wistar rat
[12] = vehicle animals compared with animals treated 0.5 mg/kg intraperitoneally
[13] = vehicle animals compared with animals treated 0.5 mg/kg intraperitoneally, n=15

## CN1C(=O)CN=C(c2ccccc2)c2cc(Cl)ccc21 [diazepam, reference compound]
Wistar rat [1]; [8]
  time spent in the familiar compartment: increases significantly
  time spent in the unfamiliar, aversive compartment: significantly lower
Wistar rat [2]; [9]
  number of entries into the open arms: significantly lower
  time spent in the open arms: significantly lower

## α-casozepine: αs1-casein fragment 91-100, decapeptide from αs1-casein tryptic hydrolysate (YLGYLEQLLR; UniProt P02662 106-115, looked up, fragment)
[3]
  anxiolytic activity: original anxiolytic activity

## 90-96: αs1-casein peptide 90-96 (RYLGYLE; UniProt P02662 105-111, looked up, fragment) [reference compound]
[4]
  in vitro opiate activity: demonstrated in vitro opiate activity

## 91-99: peptide 91-99 derived from decapeptide, not containing arginine 100 (YLGYLEQLL; UniProt P02662 106-114, looked up, fragment)
Rat [5]
  anxiolytic properties: show anxiolytic properties

## 91-97: peptide 91-97 derived from decapeptide, not containing arginine 100 (YLGYLEQ; UniProt P02662 106-112, looked up, fragment)
Rat [5]
  anxiolytic properties: show anxiolytic properties

## 194-199: αs1-casein peptide 194-199 (TTMPLW; UniProt P02662 209-214, looked up, fragment)
[6]
  angiotensin-I converting enzyme inhibition: angiotensin-I converting enzyme inhibitors

## 91-98: peptide 91-98 derived from decapeptide, not containing arginine 100 (YLGYLEQL; UniProt P02662 106-113, looked up, fragment)
Rat [5]
  anxiolytic properties: show anxiolytic properties

## Tyr-Leu-Gly-Tyr-Leu (YLGYL; listed as Bos taurus) [αs1-casein fragment 91-95, Pentapeptide corresponding to positions 91-95 of αs1-casein]
[4]
  in vitro opiate activity: practically inactive
Rat [7]
  anxiolytic properties: possible to demonstrate the anxiolytic properties
Wistar rat [1]; [10]
  difference versus diazepam in the light/dark box: No significant difference
Wistar rat [1]; [11]
  action in the light/dark box test: anxiolytic-type action similar to that of diazepam
Wistar rat [1]; [12]
  time spent in the familiar compartment: increases significantly
  time spent in the unfamiliar, aversive compartment: significantly lower
Wistar rat [2]; [10]
  difference versus diazepam in the elevated cross maze: No significant difference
Wistar rat [2]; 0.5 mg/kg intraperitoneally one-half hour before open field, compared between treatments, n=15
  number of entries into all of the arms (exploratory activity): not significantly different
Wistar rat [2]; [11]
  action in the elevated cross maze test: an action similar to that of diazepam, i.e. an increase in the exploration of anxiety-producing zones
Wistar rat [2]; [13]
  number of entries into the open arms: significantly lower
  time spent in the open arms: significantly lower

## YLGYLE [91-96, Hexapeptide corresponding to positions 91-96 of αs1-casein]
[4]
  in vitro opiate activity: practically inactive
Rat [7]
  anxiolytic properties: possible to demonstrate the anxiolytic properties

## 90-95: αs1-casein peptide 90-95 (RYLGYL; UniProt P02662 105-110, looked up, fragment) [reference compound]
[4]
  in vitro opiate activity: demonstrated in vitro opiate activity
